The values that follow are results of earlier work, collected in patent US20130034537A1, “SIMULTANEOUS CO-TREATMENT OF PHYSICAL AND MENTAL SYMPTOMS RELATED TO SEVERE MENTAL DISORDERS BY A SPECIALLY FERMENTED SOY FORMULATION (FSWW08)” (priority 2010, published 2013).

The structures appear in SMILES notation.

The test system of one data set is immunity. Conditions: for Magnitude of immunity, ratio: DHEA = 1.
For data set [1] the following is noted: male steroid hormones.
For the next data set, the system named is schizophrenic men. Conditions: oral 2 mg.
The test system of the next data set is adrenals. The conditions noted are these: rats.

In the case of `C[C@]12CCC(O)CC1=CC(O)[C@@H]1[C@@H]2CC[C@]2(C)C(O)CC[C@@H]12` (stereo partly drawn) [Androstenetriol], the “Magnitude of immunity, ratio” value with immunity is given as 1000.

Turning to `C[C@]12CC[C@H](O)CC1=CC[C@@H]1[C@@H]2CC[C@]2(C)C(=O)CC[C@@H]12` [DHEA, dehydroepiandrosterone], the “Magnitude of immunity, ratio” value in the data set with immunity is given as 1.

Regarding `C[C@]12CCC(=O)C[C@@H]1CC[C@@H]1[C@@H]2CC[C@]2(C)[C@@H](O)CC[C@@H]12` [DHT, dihydrotestosterone], the “activity relative to testosterone” value in data set [1] is on record as 10 times.

As for `C[C@]12CCC(O)C[C@@H]1CC[C@@H]1[C@@H]2CC[C@]2(C)[C@@H](O)CC[C@@H]12` (stereo partly drawn) [androstanediol], in the data set with immunity, the “potency in mediating immunity compared to DHEA” value is 100 times.

In the case of `CCCCC(=O)O[C@H]1CC[C@H]2[C@@H]3CCc4cc(O)ccc4[C@H]3CC[C@]12C` [estradiol valeriate], in the data set with schizophrenic men, the “patients who failed to increase estradiol levels” value is on record as 27% and the testosterone result is “reduce”.

`O=c1c(-c2ccc(O)cc2)coc2cc(O)cc(O)c12` [genistein]: in the data set on adrenals, the DHEA production result is recorded as “supporting”, the aldosterone production entry is on record as “inhibiting” and the corticosterone production entry is on record as “inhibiting”.
